Data published in publication PMC8157459, “Exploring the anti-HIV-1 reverse transcriptase, anti-inflammatory, anti-cancer activities and cytotoxicity of two fermented commercial herbal concoctions sold in Limpopo Province of South Africa” (BMC Complementary Medicine and Therapies, 2021).

Molecular target: T1, human sPLA2 (Type V) (Homo sapiens, UniProt P39877)
T1 construct: gene PLA2G5
T1 sequence (P39877 21-138): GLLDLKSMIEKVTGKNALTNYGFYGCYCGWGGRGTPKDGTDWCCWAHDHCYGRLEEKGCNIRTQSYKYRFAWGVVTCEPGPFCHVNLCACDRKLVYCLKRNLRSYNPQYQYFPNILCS
Experiment: diheptanoyl thio-PC hydrolysis, DTNB colorimetric
Assay type: biochemical
Details: read-out: sPLA2 (IC50 μg/mL) (converted)
From the text: diheptanoyl thio-PC hydrolysis, DTNB colorimetric on human sPLA2 (Type V)

Compound: CCCCCCCCCCCCCCCCSC[C@H](COP(=O)([O-])OCC[N+](C)(C)C)NC(=O)CCCCCCCCCCCCCCC [Thioetheramide-PC]
- IC50: 2070 nM
